We go through 56 compounds from the Kinase Knowledgebase extract (Sharma et al. 2016).

Structures are written as SMILES. A value given as a limit tells only on which side of the number the result lay.

For this test, the target named is CDK2 (human) (UniProt P24941). The test can be described thus: Enzyme Assay.
Turning to `CC(C)c1cnn2c(NCc3ccccc3-c3cccs3)nc(O[C@@H]3CCNC3)nc12`, the concentration for half-maximal inhibition (IC50) lay in the range of 50 to 500 nM.
Under `CC(C)c1cnn2c(NCc3ccccc3-n3cccn3)nc(OC3CCNCC3)nc12` stands 50 to 500 nM.
`CC(C)c1cnn2c(NCc3ccccc3C(F)(F)F)nc(OC3CCN(C)CC3)nc12`: the IC50 was ≤ 50 nM.
As for `CC(C)c1cnn2c(NCc3ccccc3-n3ccnc3)nc(O[C@@H]3CCCNC3)nc12`, the IC50 lay within 50 to 500 nM.
In turn, `CNS(=O)(=O)c1ccccc1CNc1nc(O[C@@H]2CCCNC2)nc2c(C(C)C)cnn12` registered an IC50 of 50 to 500 nM.
`CC(C)c1cnn2c(NCc3cccc4ccncc34)nc(O[C@@H]3CCCNC3)nc12` came in with an IC50 of 50 to 500 nM.
Take `CC(C)c1cnn2c(NCc3cc(F)ccc3-n3cccn3)nc(O[C@@H]3CCCNC3)nc12`: the IC50 was ≤ 50 nM.
Regarding `CC(C)c1cnn2c(NCc3ccccc3-n3cccn3)nc(NC3CCCNC3)nc12` (stereo unspecified), the IC50 fell in the range of 50 to 500 nM.
The figure for `CC(C)c1cnn2c(NCc3ccccc3-n3ccnc3)nc(O[C@@H]3CCNC3)nc12` is 50 to 500 nM; for `CC(C)c1cnn2c(NCc3cccc4cc[n+]([O-])cc34)nc(O[C@@H]3CCCNC3)nc12` it is 50 to 500 nM.
The figure for `CC(C)c1cnn2c(NCc3ccccc3-n3cncn3)nc(OC3CCNCC3)nc12` is 50 to 500 nM; for `CC(C)c1cnn2c(NCc3ccccc3OS(=O)C(C)(C)C)nc(O[C@@H]3CCCNC3)nc12` (stereo partly specified) it is 50 to 500 nM; for `CC(C)c1cnn2c(NCc3ccccc3-n3cccn3)nc(O[C@@H]3CCCNC3)nc12` it is ≤ 50 nM.
Regarding `CC(C)c1cnn2c(NCc3ccccc3[S+](C)[O-])nc(O[C@@H]3CCCNC3)nc12` (stereo partly specified), the IC50 is 50 to 500 nM.
Under `CC(C)c1cnn2c(NCc3ccccc3-n3cccn3)nc([S+]([O-])C3CCNCC3)nc12` (stereo unspecified) stands 50 to 500 nM; under `CSc1ccccc1CNc1nc(O[C@@H]2CCCNC2)nc2c(C(C)C)cnn12`, 50 to 500 nM; under `CC(C)c1cnn2c(NCc3ccccc3-n3cccn3)nc(OC3C=CCNC3)nc12` (stereo unspecified), 50 to 500 nM.
The figure for `CC(C)c1cnn2c(NCc3ccccc3-c3cccs3)nc([S+]([O-])C3CCNCC3)nc12` (stereo unspecified) is 50 to 500 nM; for `CC(C)c1cnn2c(NCc3cccc4c3cnn4C)nc(O[C@@H]3CCCNC3)nc12` it is ≤ 50 nM.
As to `CC(C)c1cnn2c(NCc3ccccc3Cl)nc(OC3CCN(C)CC3)nc12`, the IC50 fell in the range of 50 to 500 nM.
The figure for `CC(C)c1cnn2c(NCc3cccc(F)c3-n3cccn3)nc(O[C@@H]3CCCNC3)nc12` is ≤ 50 nM.
Consider `CC(C)c1cnn2c(NCc3cccc4[nH]ncc34)nc(O[C@@H]3CCCNC3)nc12`, for which the IC50 is ≤ 50 nM.
The figure for `CC(C)c1cnn2c(NCc3ccccc3-n3cccn3)nc(S[C@@H]3CCCNC3)nc12` is 50 to 500 nM; for `CC(C)c1cnn2c(NCc3ccccc3-n3cc(Cl)cn3)nc(O[C@@H]3CCCNC3)nc12` it is 50 to 500 nM.
Under `CC(C)c1cnn2c(NCc3ccccc3-n3cncn3)nc(N[C@@H]3CCCNC3)nc12` stands ≤ 50 nM; under `CNC1CCN(c2nc(NCc3ccccc3-n3cccn3)n3ncc(C(C)C)c3n2)CC1`, 50 to 500 nM; under `CC(C)c1cnn2c(NCc3ccccc3-c3cccs3)nc(OC3CCNCC3)nc12`, 50 to 500 nM.
The figure for `CC(C)c1cnn2c(NCc3ccccc3-c3ccccn3)nc(O[C@@H]3CCCNC3)nc12` is 50 to 500 nM.
For `CC(C)c1cnn2c(NCc3cccc(Cl)c3Cl)nc(O[C@@H]3CCCNC3)nc12`, the IC50 was 50 to 500 nM.
`CC(C)c1cnn2c(NCc3ccccc3S(C)(=O)=O)nc(O[C@@H]3CCCNC3)nc12`: the concentration for half-maximal inhibition (IC50) fell in the range of 50 to 500 nM.
Under `CC(C)c1cnn2c(NCc3ccccc3-c3cccs3)nc(OC3CCN(C)CC3)nc12` stands 50 to 500 nM.
The figure for `CC(C)Oc1ccccc1CNc1nc(O[C@@H]2CCCNC2)nc2c(C(C)C)cnn12` is 50 to 500 nM; for `CNC(=O)c1ccccc1CNc1nc(O[C@@H]2CCCNC2)nc2c(C(C)C)cnn12` it is 50 to 500 nM; for `CC(C)c1cnn2c(NCc3ccccc3S(=O)(=O)N(C)C)nc(O[C@@H]3CCCNC3)nc12` it is 50 to 500 nM.
Under `CC(C)c1cnn2c(NCc3ccccc3Br)nc(O[C@@H]3CCCNC3)nc12` stands 50 to 500 nM.
`CC(C)c1cnn2c(NCc3ccccc3-n3cncn3)nc([S+]([O-])C3CCNCC3)nc12` (stereo unspecified) registered an IC50 of 50 to 500 nM.
Take `CC(C)c1cnn2c(NCc3c(F)cccc3-n3cccn3)nc(O[C@@H]3CCCNC3)nc12`: the IC50 lay within 50 to 500 nM.
Under `CC(C)c1cnn2c(NCc3ccccc3-n3cccn3)nc(OC3C[C@H]4CNC[C@@H]34)nc12` (stereo partly specified) stands 50 to 500 nM.
For `CC(C)c1cnn2c(NCc3cccc4c3OCCCO4)nc(O[C@@H]3CCCNC3)nc12`, the IC50 is 50 to 500 nM.
Turning to `CC(C)c1cnn2c(NCc3ccccc3-n3cccn3)nc(O[C@@H]3CCNC3)nc12`, the IC50 is ≤ 50 nM.
Compound `CC(C)c1cnn2c(NCc3ccccc3C(N)=O)nc(O[C@@H]3CCCNC3)nc12` showed a 50% inhibitory concentration (IC50) of 50 to 500 nM.
Under `CC(C)c1cnn2c(NCc3ccccc3S(=O)(=O)N3CCCC3)nc(O[C@@H]3CCCNC3)nc12` stands 50 to 500 nM.
Under `CC(C)c1cnn2c(NCc3ccccc3-n3cccn3)nc(N3CCC(N(C)C)CC3)nc12` stands 50 to 500 nM; under `CC(C)c1cnn2c(NCc3ccccc3OC(F)F)nc(OC3CCN(C)CC3)nc12`, 50 to 500 nM; under `CC(C)c1cnn2c(NCc3ccccc3-c3nnnn3C)nc(O[C@@H]3CCCNC3)nc12`, 50 to 500 nM.
The figure for `CC(C)c1cnn2c(NCc3ccccc3S(=O)(=O)N3CCN(C)CC3)nc(O[C@@H]3CCCNC3)nc12` is 50 to 500 nM.
Compound `CC(C)c1cnn2c(NCc3ccccc3-n3cncn3)nc(OC3CCN(C)CC3)nc12` registered a half-maximal inhibitory concentration (IC50) of 50 to 500 nM.
On to `CC(C)c1cnn2c(NCc3cccc4cccnc34)nc(O[C@@H]3CCCNC3)nc12`, for which the IC50 fell in the range of 50 to 500 nM.
Under `CC(C)c1cnn2c(NCc3ccccc3N3CCCC3=O)nc(O[C@@H]3CCCNC3)nc12` stands 50 to 500 nM; under `CC(C)c1cnn2c(NCc3ccccc3OS(C)(=O)=O)nc(O[C@@H]3CCCNC3)nc12`, 50 to 500 nM.
As for `CC(C)c1cnn2c(NCc3ccccc3-n3cncn3)nc(O[C@@H]3CCNC3)nc12`, the IC50 is ≤ 50 nM.
Under `CC(C)c1cnn2c(NCc3ccccc3-c3cccs3)nc(O[C@@H]3CCCNC3)nc12` stands ≤ 50 nM; under `COc1ccccc1CNc1nc(OC2CCN(C)CC2)nc2c(C(C)C)cnn12`, 50 to 500 nM.
The figure for `CC(C)c1cnn2c(NCc3ccc(F)cc3-n3cccn3)nc(O[C@@H]3CCCNC3)nc12` is ≤ 50 nM.
Under `CC(C)c1cnn2c(NCc3ccccc3-n3cccn3)nc(NC3CCNC3)nc12` (stereo unspecified) stands 50 to 500 nM; under `CC(C)c1cnn2c(NCc3ccccc3-c3nnn(C)n3)nc(O[C@@H]3CCCNC3)nc12`, ≤ 50 nM.
